From PMC11855086, “Synthesis, Antimicrobial Activity, and Tyrosinase Inhibition by Multifunctional 3,4-Dihydroxy-Phenyl Peptidomimetics” (International Journal of Molecular Sciences, 2025)
≈ marks a conversion by molar mass, not a printed value.

Key:
E. coli R3 (ATCC 11775) = assay: MIC and MBC, microtiter plate technique; format: cell-based; details: Escherichia coli; for MIC: ATCC11775, 24 h, resazurin; for MBC: ATCC11775, TTC
[1] = biological target: T1, mushroom tyrosinase (mTYR) (Agaricus bisporus, UniProt C7FF04); assay: Tyrosinase assay with L-DOPA as substrate (absorbance at 475 nm); format: biochemical; details: 100 µM compound
T1 construct: purchased Sigma-Aldrich (Poznan, Poland); host or cells: Agaricus bisporus (extracted natural enzyme)
T1 sequence (C7FF04 1-392 limits assumed): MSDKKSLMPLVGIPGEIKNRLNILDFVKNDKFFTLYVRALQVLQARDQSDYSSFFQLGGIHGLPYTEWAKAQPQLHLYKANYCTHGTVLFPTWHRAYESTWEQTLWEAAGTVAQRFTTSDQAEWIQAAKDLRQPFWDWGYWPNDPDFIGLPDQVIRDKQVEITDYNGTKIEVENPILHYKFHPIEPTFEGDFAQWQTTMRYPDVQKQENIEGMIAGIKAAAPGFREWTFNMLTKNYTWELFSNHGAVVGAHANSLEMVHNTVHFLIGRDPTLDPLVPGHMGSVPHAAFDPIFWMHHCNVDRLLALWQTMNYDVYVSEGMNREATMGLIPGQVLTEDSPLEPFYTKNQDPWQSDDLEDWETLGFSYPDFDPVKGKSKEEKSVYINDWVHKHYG
Excerpt: Tyrosinase (Tyr) extracted from Agaricus bisporus (mushroom tyrosinase, mTYR) is commonly used as a model enzyme for human Tyr due to its high purity, stability, and commercial availability. It is frequently used in the selection of TYR inhibitors. Following established literature protocols, L-tyrosine and L-DOPA, which serve as substrates for monophenol and diphenol oxidation, respectively, were used to assess the tyrosinase inhibitory activity of synthesized target compounds [21].
Tyrosinase (Tyr) activity was measured using L-DOPA as substrate and phosphate buffer solution (PBS) as blank control, following the method described by Min He et al. (2022) with an ultraviolet spectrophotometer (Carry-300, Agilent Life Sciences and Chemical Analysis, Santa Clara, CA, USA). […] Before the experiment, 2.9 mL of PBS and 0.1 mL of DMSO were used to account for the influence of the background solvent. The inhibitor solution (100 µL), substrate solution (2.8 mL), and Tyr solution (100 µL) were then added to a quartz colorimetric cuvette. After a one-minute mixing period, the absorption spectra of the mixture were continuously recorded at 475 nm using the UV spectrophotometer (Carry-300) for 5 min over a period of every 30 s. The tyrosinase inhibition rate was calculated as follows:Relative enzyme activity (%) = (A1 − A2)/A1 × 100
A1 = Absorbance of L-DOPA and inhibitor.
A2 = Absorbance of L-DOPA, inhibitor, and tyrosinase.

[2] = test system: A. baumannii (ATCC 17978); assay: MIC and MBC, microtiter plate technique; format: cell-based; details: ATCC17978, Acinetobacter baumannii; for MIC: 24 h, resazurin; for MBC: TTC
E. coli R2 (ATCC 39544) = assay: MIC and MBC, microtiter plate technique; format: cell-based; details: Escherichia coli; for MBC: ATCC39544; for MIC: ATCC39544, 24 h
S. aureus (ATCC 23235) = assay: microbe, parasite or virus in culture; format: cell-based; details: Staphylococcus aureus; for MBC: ATCC23235; for MIC: ATCC23235, 24 h
[3] = test system: P. aeruginosa (ATCC 15442); assay: MIC and MBC, microtiter plate technique; format: cell-based; details: ATCC15442, Pseudomonas aeruginosa; for MIC: 24 h, resazurin; for MBC: TTC
E. coli R4 (ATCC 39543) = assay: MIC and MBC, microtiter plate technique; format: cell-based; details: Escherichia coli; for MBC: ATCC39543; for MIC: ATCC39543, 24 h
E. cloacae (ATCC 49141) = assay: MIC and MBC, microtiter plate technique; format: cell-based; details: ATCC49141, Enterobacter cloacae; for MIC: 24 h, resazurin; for MBC: TTC
E. coli K12 (ATCC 25404) = assay: MIC and MBC, microtiter plate technique; format: cell-based; details: Escherichia coli; for MBC: ATCC25404; for MIC: ATCC25404, 24 h

SMILES: COc1ccc(CNC(=O)C(c2ccc(O)c(O)c2)N(Cc2ccc(OC)cc2)C(=O)Cc2ccccc2)cc1 (centres unmarked) [Compound 5b, 2-(3,4-dihydroxyphenyl)-N-(4-methoxybenzyl)-2-(N-(4-methoxybenzyl)-2-phenylacetamido)-acetamide]
- MIC (E. coli R3 (ATCC 11775)): 1.61 µM (≈ 0.87 µg/mL)
- MBC (E. coli R3 (ATCC 11775)): 1.7 µM (≈ 0.919 µg/mL)
- inhibition at 100 µM [1]: > 10%
- MIC [2]: 0.83 µM (≈ 0.449 µg/mL)
- MBC [2]: 0.9 µM (≈ 0.487 µg/mL)
- MBC (E. coli R2 (ATCC 39544)): 1.03 µM (≈ 0.557 µg/mL)
- MIC (E. coli R2 (ATCC 39544)): 0.98 µM (≈ 0.53 µg/mL)
- MBC (S. aureus (ATCC 23235)): 0.96 µM (≈ 0.519 µg/mL)
- MIC (S. aureus (ATCC 23235)): 0.9 µM (≈ 0.487 µg/mL)
- MIC [3]: 0.96 µM (≈ 0.519 µg/mL)
- MBC [3]: 0.99 µM (≈ 0.535 µg/mL)
- MBC (E. coli R4 (ATCC 39543)): 2.21 µM (≈ 1.19 µg/mL)
- MIC (E. coli R4 (ATCC 39543)): 2 µM (≈ 1.08 µg/mL)
- MIC (E. cloacae (ATCC 49141)): 1 µM (≈ 0.541 µg/mL)
- MBC (E. cloacae (ATCC 49141)): 1.05 µM (≈ 0.568 µg/mL)
- MBC (E. coli K12 (ATCC 25404)): 0.61 µM (≈ 0.33 µg/mL)
- MIC (E. coli K12 (ATCC 25404)): 0.45 µM (≈ 0.243 µg/mL)

SMILES: O=C(NCc1ccccc1)C(c1ccc(O)c(O)c1)N(C(=O)Cc1ccccc1)C1CCCCC1 (centres unmarked) [Compound 5d, N-benzyl-2-(N-cyclohexyl-2-phenylacetamido)-2-(3,4-dihydroxyphenyl)acetamide]
- MIC (E. coli R3 (ATCC 11775)): 0.92 µM (≈ 0.435 µg/mL)
- MBC (E. coli R3 (ATCC 11775)): 1.06 µM (≈ 0.501 µg/mL)
- inhibition at 100 µM [1]: > 10%
- MIC [2]: 0.74 µM (≈ 0.35 µg/mL)
- MBC [2]: 0.75 µM (≈ 0.354 µg/mL)
- MBC (E. coli R2 (ATCC 39544)): 1.07 µM (≈ 0.506 µg/mL)
- MIC (E. coli R2 (ATCC 39544)): 0.68 µM (≈ 0.321 µg/mL)
- MBC (S. aureus (ATCC 23235)): 0.74 µM (≈ 0.35 µg/mL)
- MIC (S. aureus (ATCC 23235)): 0.68 µM (≈ 0.321 µg/mL)
- MIC [3]: 0.63 µM (≈ 0.298 µg/mL)
- MBC [3]: 0.74 µM (≈ 0.35 µg/mL)
- MBC (E. coli R4 (ATCC 39543)): 1.29 µM (≈ 0.61 µg/mL)
- MIC (E. coli R4 (ATCC 39543)): 1.45 µM (≈ 0.685 µg/mL)
- MIC (E. cloacae (ATCC 49141)): 0.68 µM (≈ 0.321 µg/mL)
- MBC (E. cloacae (ATCC 49141)): 0.76 µM (≈ 0.359 µg/mL)
- MBC (E. coli K12 (ATCC 25404)): 0.74 µM (≈ 0.35 µg/mL)
- MIC (E. coli K12 (ATCC 25404)): 0.36 µM (≈ 0.17 µg/mL)

SMILES: COc1ccc(CNC(=O)C(c2ccc(O)c(O)c2)N(C(=O)Cc2ccccc2)C2CCCCC2)cc1 (centres unmarked) [Compound 5e]
- MIC (E. coli R3 (ATCC 11775)): 0.89 µM (≈ 0.447 µg/mL)
- MBC (E. coli R3 (ATCC 11775)): 1.15 µM (≈ 0.578 µg/mL)
- MIC [2]: 0.72 µM (≈ 0.362 µg/mL)
- MBC [2]: 0.75 µM (≈ 0.377 µg/mL)
- MBC (E. coli R2 (ATCC 39544)): 0.89 µM (≈ 0.447 µg/mL)
- MIC (E. coli R2 (ATCC 39544)): 0.71 µM (≈ 0.357 µg/mL)
- MBC (S. aureus (ATCC 23235)): 0.69 µM (≈ 0.347 µg/mL)
- MIC (S. aureus (ATCC 23235)): 0.67 µM (≈ 0.337 µg/mL)
- MIC [3]: 0.67 µM (≈ 0.337 µg/mL)
- MBC [3]: 0.69 µM (≈ 0.347 µg/mL)
- MBC (E. coli R4 (ATCC 39543)): 1.29 µM (≈ 0.648 µg/mL)
- MIC (E. coli R4 (ATCC 39543)): 1.37 µM (≈ 0.689 µg/mL)
- MIC (E. cloacae (ATCC 49141)): 0.64 µM (≈ 0.322 µg/mL)
- MBC (E. cloacae (ATCC 49141)): 0.7 µM (≈ 0.352 µg/mL)
- MBC (E. coli K12 (ATCC 25404)): 0.87 µM (≈ 0.437 µg/mL)
- MIC (E. coli K12 (ATCC 25404)): 0.3 µM (≈ 0.151 µg/mL)

SMILES: O=C(NCc1ccc(F)cc1)C(c1ccc(O)c(O)c1)N(C(=O)Cc1ccccc1)C1CCCCC1 (centres unmarked) [Compound 5f]
- MIC (E. coli R3 (ATCC 11775)): 0.83 µM (≈ 0.407 µg/mL)
- MBC (E. coli R3 (ATCC 11775)): 1.18 µM (≈ 0.579 µg/mL)
- inhibition at 100 µM [1]: < 10%
- MIC [2]: 0.68 µM (≈ 0.334 µg/mL)
- MBC [2]: 0.71 µM (≈ 0.348 µg/mL)
- MBC (E. coli R2 (ATCC 39544)): 0.75 µM (≈ 0.368 µg/mL)
- MIC (E. coli R2 (ATCC 39544)): 0.65 µM (≈ 0.319 µg/mL)
- MBC (S. aureus (ATCC 23235)): 0.71 µM (≈ 0.348 µg/mL)
- MIC (S. aureus (ATCC 23235)): 0.68 µM (≈ 0.334 µg/mL)
- MIC [3]: 0.64 µM (≈ 0.314 µg/mL)
- MBC [3]: 0.69 µM (≈ 0.338 µg/mL)
- MBC (E. coli R4 (ATCC 39543)): 1.3 µM (≈ 0.638 µg/mL)
- MIC (E. coli R4 (ATCC 39543)): 1.28 µM (≈ 0.628 µg/mL)
- MIC (E. cloacae (ATCC 49141)): 0.68 µM (≈ 0.334 µg/mL)
- MBC (E. cloacae (ATCC 49141)): 0.73 µM (≈ 0.358 µg/mL)
- MBC (E. coli K12 (ATCC 25404)): 0.61 µM (≈ 0.299 µg/mL)
- MIC (E. coli K12 (ATCC 25404)): 0.22 µM (≈ 0.108 µg/mL)

SMILES: CCCCN(C(=O)Cc1ccccc1)C(C(=O)NCc1ccccc1)c1ccc(O)c(O)c1 (centres unmarked) [Compound 5g, N-benzyl-2-(N-butyl-2-phenylacetamido)-2-(3,4-dihydroxyphenyl)acetamide]
- MIC (E. coli R3 (ATCC 11775)): 1.02 µM (≈ 0.455 µg/mL)
- MBC (E. coli R3 (ATCC 11775)): 1.23 µM (≈ 0.549 µg/mL)
- inhibition at 100 µM [1]: > 10%
- MIC [2]: 0.79 µM (≈ 0.353 µg/mL)
- MBC [2]: 0.82 µM (≈ 0.366 µg/mL)
- MBC (E. coli R2 (ATCC 39544)): 1.23 µM (≈ 0.549 µg/mL)
- MIC (E. coli R2 (ATCC 39544)): 0.94 µM (≈ 0.42 µg/mL)
- MBC (S. aureus (ATCC 23235)): 0.8 µM (≈ 0.357 µg/mL)
- MIC (S. aureus (ATCC 23235)): 0.73 µM (≈ 0.326 µg/mL)
- MIC [3]: 0.7 µM (≈ 0.313 µg/mL)
- MBC [3]: 0.78 µM (≈ 0.348 µg/mL)
- MBC (E. coli R4 (ATCC 39543)): 1.41 µM (≈ 0.63 µg/mL)
- MIC (E. coli R4 (ATCC 39543)): 1.5 µM (≈ 0.67 µg/mL)
- MIC (E. cloacae (ATCC 49141)): 0.72 µM (≈ 0.322 µg/mL)
- MBC (E. cloacae (ATCC 49141)): 0.77 µM (≈ 0.344 µg/mL)
- MBC (E. coli K12 (ATCC 25404)): 0.71 µM (≈ 0.317 µg/mL)
- MIC (E. coli K12 (ATCC 25404)): 0.42 µM (≈ 0.188 µg/mL)

SMILES: CCCCN(C(=O)Cc1ccccc1)C(C(=O)NCc1ccc(OC)cc1)c1ccc(O)c(O)c1 (centres unmarked) [Compound 5h]
- MIC (E. coli R3 (ATCC 11775)): 1.07 µM (≈ 0.51 µg/mL)
- MBC (E. coli R3 (ATCC 11775)): 1.19 µM (≈ 0.567 µg/mL)
- inhibition at 100 µM [1]: < 10%
- MIC [2]: 0.73 µM (≈ 0.348 µg/mL)
- MBC [2]: 0.75 µM (≈ 0.357 µg/mL)
- MBC (E. coli R2 (ATCC 39544)): 1.07 µM (≈ 0.51 µg/mL)
- MIC (E. coli R2 (ATCC 39544)): 0.86 µM (≈ 0.41 µg/mL)
- MBC (S. aureus (ATCC 23235)): 0.67 µM (≈ 0.319 µg/mL)
- MIC (S. aureus (ATCC 23235)): 0.67 µM (≈ 0.319 µg/mL)
- MIC [3]: 0.69 µM (≈ 0.329 µg/mL)
- MBC [3]: 0.72 µM (≈ 0.343 µg/mL)
- MBC (E. coli R4 (ATCC 39543)): 1.42 µM (≈ 0.677 µg/mL)
- MIC (E. coli R4 (ATCC 39543)): 1.36 µM (≈ 0.648 µg/mL)
- MIC (E. cloacae (ATCC 49141)): 0.74 µM (≈ 0.353 µg/mL)
- MBC (E. cloacae (ATCC 49141)): 0.73 µM (≈ 0.348 µg/mL)
- MBC (E. coli K12 (ATCC 25404)): 0.71 µM (≈ 0.338 µg/mL)
- MIC (E. coli K12 (ATCC 25404)): 0.25 µM (≈ 0.119 µg/mL)
